Measurements published in patent US11478460B2, “Diaryl substituted 6,5-fused ring compounds as C5aR inhibitors” (CHEMOCENTRYX, INC., priority 2017, dated 2022).

Target: C5aR (Homo sapiens (Human), UniProt P21730)
Test: Chemotaxis assay using U937 cells (C5aR mediated migration)
Format: cell-based
Conditions: read-out: Mig IC50
Method in brief: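 U937 monocytic cells, pretreated overnight with 0.5 mM cyclic AMP, placed at 100,000 cells in the upper well above 5 μm polycarbonate filters. Lower well held 0.03 nM C5a plus compound in HBSS/1% FBS; after 1.5 h at 37° C migrated cells counted directly or by CyQuant, giving IC50.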

Sequence of C5aR (P21730 whole entry): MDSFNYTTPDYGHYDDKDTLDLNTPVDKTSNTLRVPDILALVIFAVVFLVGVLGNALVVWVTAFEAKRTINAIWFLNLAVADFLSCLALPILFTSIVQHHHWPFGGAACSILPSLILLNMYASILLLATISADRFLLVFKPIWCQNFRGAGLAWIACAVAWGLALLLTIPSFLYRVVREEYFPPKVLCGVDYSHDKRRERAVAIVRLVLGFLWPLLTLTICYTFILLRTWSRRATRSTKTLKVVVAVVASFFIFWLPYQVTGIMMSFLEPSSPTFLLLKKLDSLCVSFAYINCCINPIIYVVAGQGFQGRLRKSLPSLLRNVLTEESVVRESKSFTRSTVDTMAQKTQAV

Row | IC50 | SMILES
1 | 50 to 500 nM | COc1ccc(-c2c3c(nn2-c2c(C)cccc2C)CCN(c2cc(C(C)(C)C)ccc2C)C3)cc1 [Example 1.472]
2 | 5 to 50 nM | Cc1cccc(OC(C)C)c1-n1nc2c(c1-c1ccc(N)cc1)CN(c1ccccc1C(C)C)CC2 [Example 1.465]
3 | 50 to 500 nM | Cc1cccc(OCC(C)C)c1-n1nc2c(c1-c1ccc(NC(N)=O)cc1)CN(C(=O)C1CCCC1)CC2 [Example 1.438]
4 | 5 to 50 nM | CCc1cccc(CC)c1-n1nc2c(c1-c1cc(F)c(NC(C)=O)cc1F)CN(Cc1ccc(C(F)(F)F)cc1C(F)(F)F)CC2 [Example 1.006]
5 | > 500 nM | Cc1cccc(OCC(C)C)c1-n1nc2c(c1-c1ccc(NC(N)=O)cc1)CN(C(=O)C1CCCCC1)CC2 [Example 1.425]
6 | 5 to 50 nM | CCc1cccc(CC)c1-n1nc2c(c1-c1cc(F)c(NC(N)=O)cc1F)CN(CC1CCOC1)CC2 (stereo not drawn) [Example 1.020]
7 | 5 to 50 nM | CCC(C)(C)CN1CCc2nn(-c3c(C)cccc3OCC(C)C)c(-c3ccc(NC(N)=O)cc3)c2C1 [Example 1.381]
8 | ≤ 5 nM | Cc1cccc(F)c1CN1CCc2nn(-c3c(C)cccc3OCC(C)C)c(-c3ccc(NC(N)=O)cc3)c2C1 [Example 1.360]
9 | ≤ 5 nM | CCc1cccc(CC)c1-n1nc2c(c1-c1cc(F)c(NC(N)=O)cc1F)CN(Cc1cc(F)ccc1F)CC2 [Example 1.046]
10 | ≤ 5 nM | CCc1cccc(CC)c1-n1nc2c(c1-c1cc(F)c(NC(N)=O)cc1F)CN(C(c1ccccc1)C(C)(C)O)CC2 (stereo not drawn) [Example 1.080]
11 | ≤ 5 nM | Cc1cccc(C)c1-n1nc2c(c1-c1cc(F)c(NC(N)=O)cc1F)CN(c1ncc(Cl)cc1F)CC2 [Example 1.132]
12 | ≤ 5 nM | CCc1cccc(CC)c1-n1nc2c(c1-c1cc(F)c(NC(N)=O)cc1F)CN(C(=O)C(C)C)C(C)(C)C2 [Example 1.032]
13 | ≤ 5 nM | Cc1cccc(C)c1-n1nc2c(c1-c1cc(F)c(NC(N)=O)cc1F)CN(c1ncc(C(C)C)cc1Cl)CC2 [Example 1.113]
14 | 5 to 50 nM | Cc1cccc(OCC(C)C)c1-n1nc2c(c1-c1ccc(NC(N)=O)cc1)CN(c1ccc(C(F)(F)F)cc1)CC2 [Example 1.407]
15 | > 500 nM | CC(C)c1ccccc1-n1nc2c(c1-c1ccc(NC(N)=O)cc1)CN(C(=O)OC(C)(C)C)CC2 [Example 1.416]
16 | 5 to 50 nM | Cc1cccc(OCC(C)C)c1-n1nc2c(c1-c1ccc(NC(N)=O)cc1)CN(CC1(C(F)(F)F)CC1)CC2 [Example 1.372]
17 | 50 to 500 nM | Cc1ccnc(C)c1-n1nc2c(c1-c1cc(F)c(NC(N)=O)cc1F)CN(C(C)(C)c1ccccc1)CC2 [Example 1.133]
18 | ≤ 5 nM | CC(C)(c1ccccc1)N1CCc2nn(-c3ccccc3OC(F)(F)F)c(-c3cc(F)c(NC(N)=O)cc3F)c2C1 [Example 1.138]
19 | 5 to 50 nM | CCc1cccc(CC)c1-n1nc2c(c1-c1ccc(NC(N)=O)cc1)CN(Cc1ccccc1C(F)(F)F)CC2 [Example 1.293]
20 | ≤ 5 nM | Cc1cnc(N2CCc3nn(-c4c(C)cccc4OCC(C)C)c(-c4cc(F)c(NC(N)=O)cc4F)c3C2)c(Cl)c1 [Example 1.190]
21 | 5 to 50 nM | Cc1cc(C)c(-n2nc3c(c2-c2ccc(NC(N)=O)cc2)CN(c2ncc(C(F)(F)F)cc2F)CC3)c(C)c1 [Example 1.287]

Row | IC50 | SMILES
22 | > 500 nM | Cc1cccc(C)c1-n1nc2c(c1-c1ccc(C(N)=O)cc1)CN(C(=O)OC(C)(C)C)CC2 [Example 1.420]
23 | 5 to 50 nM | Cc1cccc(OCC(C)C)c1-n1nc2c(c1-c1ccc(NC(N)=O)cc1)CN(Cc1cccc(C(C)(C)C)c1)CC2 [Example 1.392]
24 | ≤ 5 nM | CCc1cccc(CC)c1-n1nc2c(c1-c1cc(F)c(NC(N)=O)cc1F)CN(C(CC)c1ccccc1C(F)(F)F)CC2 (stereo not drawn) [Example 1.144]
25 | 50 to 500 nM | CCc1cccc(C)c1-n1nc2c(c1-c1ccc(NC(N)=O)cc1)CN(C(=O)OC(C)(C)C)CC2 [Example 1.399]
26 | ≤ 5 nM | COC(=O)CC(c1ccccc1)N1CCc2nn(-c3c(C)cccc3C)c(-c3cc(F)c(NC(N)=O)cc3F)c2C1 (stereo not drawn) [Example 1.074]
27 | ≤ 5 nM | Cc1ccc(C(C)C)nc1N1CCc2nn(-c3c(C)cccc3OCC(C)C)c(-c3ccc(NC(N)=O)cc3)c2C1 [Example 1.347]
28 | 50 to 500 nM | Cc1cccc(C)c1-n1nc2c(c1-c1cc(F)c(NC(N)=O)cc1F)CN(C1(C)CCOCC1)CC2 [Example 1.078]
29 | ≤ 5 nM | Cc1cccc(OCC(C)C)c1-n1nc2c(c1-c1cc(F)c(NC(N)=O)cc1F)CN(c1ncncc1Cl)CC2 [Example 1.141]
30 | 5 to 50 nM | Cc1cccc(C)c1-n1nc2c(c1-c1ccc(N)cc1)CN(c1ccccc1C(C)C)CC2 [Example 1.481]
31 | 5 to 50 nM | Cc1ccccc1CN1CCc2nn(-c3c(C)cccc3OCC(C)C)c(-c3ccc(NC(N)=O)cc3)c2C1 [Example 1.371]
32 | 50 to 500 nM | Cc1cccc(OCC(C)C)c1-n1nc2c(c1-c1ccc(NC(N)=O)cc1)CN(C(=O)CCc1ccccc1)CC2 [Example 1.429]
33 | ≤ 5 nM | Cc1cc(NC(N)=O)c(F)cc1-c1c2c(nn1-c1c(C)cccc1C)CCN(c1ncc(Cl)cc1Cl)C2 [Example 1.128]
34 | 5 to 50 nM | Cc1cccc(OCC(C)C)c1-n1nc2c(c1-c1ccc(NC(N)=O)cc1)CN(CC(C)(C)C)CC2 [Example 1.405]
35 | 5 to 50 nM | Cc1cccc(OCC(C)C)c1-n1nc2c(c1-c1ccc(N)c(F)c1)CN(c1ncc(C(F)(F)F)cc1F)CC2 [Example 1.294]
36 | ≤ 5 nM | Cc1cccc(C)c1-n1nc2c(c1-c1cc(F)c(NC(N)=O)cc1F)CN(c1ncc(C3CC3)cc1F)CC2 [Example 1.089]
37 | ≤ 5 nM | CCc1cccc(CC)c1-n1nc2c(c1-c1cc(F)c(NC(N)=O)cc1F)CN(Cc1ccc(C(F)(F)F)cc1C(F)(F)F)CC2 [Example 1.077]
38 | ≤ 5 nM | Cc1cccc(OCC(C)C)c1-n1nc2c(c1-c1ccc(NC(N)=O)cc1)CN(Cc1ccccc1C(F)(F)F)CC2 [Example 1.361]
39 | ≤ 5 nM | Cc1ccc(C(C)(C)C)cc1N1CCc2nn(-c3c(C)cccc3OC(C)C)c(-c3ccc(NC(N)=O)cc3)c2C1 [Example 1.444]
40 | 5 to 50 nM | COc1cccc(C)c1-n1nc2c(c1-c1ccc(NC(N)=O)cc1)CN(c1ccccc1C(C)C)CC2 [Example 1.482]
41 | ≤ 5 nM | Cc1cccc(C)c1-n1nc2c(c1-c1cc(F)c(NC(N)=O)cc1F)CN(c1ccc(OC(F)(F)F)cc1F)CC2 [Example 1.099]
42 | ≤ 5 nM | Cc1cccc(OCC(C)C)c1-n1nc2c(c1-c1ccc(NC(N)=O)cc1)CN(c1ccc(C(F)(F)F)cc1C(F)(F)F)CC2 [Example 1.343]

Row | IC50 | SMILES
43 | 5 to 50 nM | Cc1cccc(OCC(C)C)c1-n1nc2c(c1-c1ccc(NC(N)=O)cc1)CN(c1ccc(F)c(C(F)(F)F)c1)CC2 [Example 1.369]
44 | ≤ 5 nM | CCCC(C)N1CCc2nn(-c3c(C)cccc3OCC(C)C)c(-c3ccc(NC(N)=O)c(F)c3)c2C1 (stereo not drawn) [Example 1.247]
45 | ≤ 5 nM | Cc1cccc(OCC(C)C)c1-n1nc2c(c1-c1ccc(NC(N)=O)cc1)CN(Cc1ccc(Cl)cc1C(F)(F)F)CC2 [Example 1.327]
46 | 50 to 500 nM | Cc1cccc(OCC(C)C)c1-n1nc2c(c1-c1ccc(CO)cc1)CN(c1ccccc1C(C)(C)C)CC2 [Example 1.450]
47 | 5 to 50 nM | Cc1cccc(C)c1-n1nc2c(c1-c1ccc(C(N)=O)cc1)CN(c1ccccc1C(C)C)CC2 [Example 1.470]
48 | 5 to 50 nM | Cc1cccc(OCC(C)C)c1-n1nc2c(c1-c1ccc(NC(N)=O)cc1)CN(CC1(C(F)(F)F)CCCC1)CC2 [Example 1.366]
49 | 50 to 500 nM | Cc1cccc(F)c1-n1nc2c(c1-c1ccc(N)cc1)CN(c1ccccc1C(C)C)CC2 [Example 1.464]
50 | 50 to 500 nM | Cc1cccc(OCC(C)C)c1-n1nc2c(c1-c1ccc(NC(N)=O)cc1)CN(C(=O)C1CCC1)CC2 [Example 1.426]
51 | 5 to 50 nM | Cc1cccc(C)c1-n1nc2c(c1-c1cc(F)c(NC(N)=O)cc1F)CN(Cc1ccc(C(F)(F)F)cc1C(F)(F)F)CC2 [Example 1.060]
52 | 5 to 50 nM | Cc1cccc(OCC(C)C)c1-n1nc2c(c1-c1ccc(NC(N)=O)cc1)CN(Cc1cc(F)ccc1F)CC2 [Example 1.310]
53 | 5 to 50 nM | CCc1cccc(CC)c1-n1nc2c(c1-c1ccc(NC(N)=O)cc1)CN(Cc1c(Cl)cccc1C(F)(F)F)CC2 [Example 1.297]
54 | ≤ 5 nM | CCc1cccc(CC)c1-n1nc2c(c1-c1cc(F)c(NC(N)=O)cc1F)CN(CC(C)(C)C(F)(F)F)CC2 [Example 1.001]
55 | ≤ 5 nM | Cc1ccc(C(F)(F)F)c(CN2CCc3nn(-c4c(C)cccc4OCC(C)C)c(-c4ccc(NC(N)=O)cc4)c3C2)c1 [Example 1.300]
56 | 5 to 50 nM | Cc1cccc(OCC(C)C)c1-n1nc2c(c1-c1ccc(NC(N)=O)cc1)CN(Cc1c(F)cccc1Cl)CC2 [Example 1.350]
57 | ≤ 5 nM | Cc1cccc(OCC(C)C)c1-n1nc2c(c1-c1ccc(NC(N)=O)cc1)CN(Cc1cc(Cl)ccc1Cl)CC2 [Example 1.324]
58 | ≤ 5 nM | CCc1cccc(CC)c1-n1nc2c(c1-c1cc(F)c(NC(N)=O)cc1F)CN(CC1CCCC1)C(C)(C)C2 [Example 1.043]
59 | 5 to 50 nM | COc1cccc(F)c1CN1CCc2nn(-c3c(C)cccc3OCC(C)C)c(-c3ccc(NC(N)=O)cc3)c2C1 [Example 1.354]
60 | ≤ 5 nM | CCc1cccc(CC)c1-n1nc2c(c1-c1cc(F)c(NC(N)=O)cc1F)CN(Cc1ccc(Cl)cc1Cl)CC2 [Example 1.073]
61 | 5 to 50 nM | Cc1cccc(OCC(C)C)c1-n1nc2c(c1-c1ccc(NC(N)=O)c(F)c1)CN(CC(C)C)CC2 [Example 1.273]
62 | 50 to 500 nM | COc1cccc(C)c1-n1nc2c(c1-c1ccc(NC(C)C)cc1)CN(c1ccccc1C(C)C)CC2 [Example 1.485]
63 | 5 to 50 nM | COc1cccc(C)c1-n1nc2c(c1-c1ccc(N)cc1)CN(c1ccccc1C(C)(C)C)CC2 [Example 1.459]
